# Data as given in US9187472B2 (AbbVie Inc., priority 2012, dated 2015).
# Experiments:
# NAMPT = NAMPT (Homo sapiens, UniProt P43490); test: TR-FRET Binding Assay of NAMPT with PRPP; details: with 200 μM PRPP and 2.5 mM ATP; 2 nM NAMPT, 2 nM probe, 16 hours equilibration
# Experimental: Time-Resolved Fluorescence Resonance Energy Transfer (TR-FRET) Binding Assay of NAMPT with PRPP
# Compound handling and data processing were identical to the assay in the absence of substrates (above). Final concentrations were 1× assay buffer, 2% DMSO, 2 nM NAMPT, 2 nM probe, 1 nM Tb-anti-His antibody (Invitrogen # PV5895), 200 μM PRPP and 2.5 mM ATP. Reactions were equilibrated for 16 hours prior to measurement to allow for potential enzymatic modification of test compounds.
# [1] = molecular target: NAMPT (human, recombinant, C-terminally His-tagged) (Homo sapiens, UniProt P43490); test: Time-Resolved Fluorescence Resonance Energy Transfer (TR-FRET) Binding Assay of NAMPT; details: without substrates; 6.8 nM NAMPT, 200 nM probe, 3 hours equilibration
# Experimental: Determination of the utility of compounds having Formula (I) as binders to and inhibitors of NAMPT was performed using Time-Resolved Fluorescence Resonance Energy Transfer (TR-FRET) binding assays.
# Time-Resolved Fluorescence Resonance Energy Transfer (TR-FRET) Binding Assay of NAMPT
# Test compounds were serially diluted (typically 11 half log dilutions) in neat DMSO to 50× final concentrations prior to dilution with assay buffer (50 mM HEPES (NaOH), pH 7.5, 100 mM NaCl, 10 mM MgCl2, 1 mM DTT, 1% Glycerol) to 3× and 6% DMSO. Six μL were transferred to 384-well low-volume plates (Owens Corning #3673). To this, […] of a 1.5× solution containing enzyme, probe and antibody were added. Final concentrations in the 18 μL, reactions were 1× assay buffer, 2% DMSO, 6.8 nM NAMPT (human, recombinant, C-terminally His-tagged), 200 nM probe (a potent nicotinamide-competitive inhibitor conjugated to Oregon Green 488) and 1 nM Tb-anti-His antibody (Invitrogen # PV5895). Reactions were equilibrated at room temperature for 3 hours prior to reading on an Envision multi-label plate reader (Perkin Elmer; Ex=337 nm, Em=520 and 495 nm). Time-resolved FRET ratios (Em520/Em495) were normalized to controls, plotted as a function of compound concentration and fit with the four-parameter logistic equation to determine IC50s.
# PC3 cells = test: NAMPT Cell Proliferation Assay; type: cell-based; details: Homo sapiens, PC-3, 120 h, 5 days incubation, cell viability by Cell Titer Glo
# Outline: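 Seed PC3 at 500 cells/well (RPMI, 10% HI-FBS), attach overnight; add compound, 10-fold series 10 μM → 1×10^−5 μM; incubate 5 d, 37° C/5% CO2; luminescent viability readout; fit % inhibition sigmoidally for IC50.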
# Chain of NAMPT (human, recombinant, C-terminally His-tagged) (P43490 whole entry): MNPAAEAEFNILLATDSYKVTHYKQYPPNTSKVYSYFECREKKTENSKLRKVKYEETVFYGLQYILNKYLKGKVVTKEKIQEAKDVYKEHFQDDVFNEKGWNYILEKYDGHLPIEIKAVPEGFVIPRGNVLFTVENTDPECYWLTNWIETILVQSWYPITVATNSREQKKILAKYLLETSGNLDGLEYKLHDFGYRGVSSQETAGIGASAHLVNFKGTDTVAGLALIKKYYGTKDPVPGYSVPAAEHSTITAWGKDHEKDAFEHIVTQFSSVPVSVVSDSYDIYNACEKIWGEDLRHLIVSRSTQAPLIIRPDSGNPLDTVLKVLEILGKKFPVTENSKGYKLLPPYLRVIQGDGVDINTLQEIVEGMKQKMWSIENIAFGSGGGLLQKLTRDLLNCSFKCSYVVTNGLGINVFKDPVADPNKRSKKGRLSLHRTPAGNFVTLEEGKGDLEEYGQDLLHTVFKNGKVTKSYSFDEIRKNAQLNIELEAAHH
# Chain of NAMPT (P43490 whole entry): as above
Structure (SMILES),IC50 (NAMPT) [nM],IC50 [1] [nM],IC50 (PC3 cells) [nM]
"CC(C)CCNC(=O)c1ccc(NC(=O)Nc2ccc3nccn3c2)cc1 [Example 1, 4-[(imidazo[1,2-a]pyridin-6-ylcarbamoyl)amino]-N-(3-methylbutyl)benzamide]",0.72,92.1,60.9
"CC(C)CCNC(=O)c1ccc(NC(=O)Nc2ccn3ccnc3c2)cc1 [Example 2, 4-[(imidazo[1,2-a]pyridin-7-ylcarbamoyl)amino]-N-(3-methylbutyl)benzamide]",39.8,854,> 10000
"O=C(CC1CCCC1)Nc1ccc(NC(=O)Nc2ccc3nccn3c2)cc1 [Example 3, 2-cyclopentyl-N-{4-[(imidazo[1,2-a]pyridin-6-ylcarbamoyl)amino]phenyl}acetamide]",0.282,31.6,36.7
"O=C(Nc1ccc(C(=O)NCCc2ccccc2)cc1)Nc1ccc2nccn2c1 [Example 4, 4-[(imidazo[1,2-a]pyridin-6-ylcarbamoyl)amino]-N-(2-phenylethyl)benzamide]",0.516,413,935
"O=C(Nc1ccc(C(=O)NCCN2CCOCC2)cc1)Nc1ccc2nccn2c1 [Example 5, 4-[(imidazo[1,2-a]pyridin-6-ylcarbamoyl)amino]-N-[2-(morpholin-4-yl)ethyl]benzamide]",0.684,2500,740
"CC(C)(CO)NC(=O)c1ccc(NC(=O)Nc2ccc3nccn3c2)cc1 [Example 6, N-(1-hydroxy-2-methylpropan-2-yl)-4-[(imidazo[1,2-a]pyridin-6-ylcarbamoyl)amino]benzamide]",0.964,2910,6650
"O=C(Nc1ccc(C(=O)NCc2ccccc2)cc1)Nc1ccc2nccn2c1 [Example 7, N-benzyl-4-[(imidazo[1,2-a]pyridin-6-ylcarbamoyl)amino]benzamide]",0.516,183,527
"O=C(Nc1ccc(C(=O)NCC2CCCC2)cc1)Nc1ccc2nccn2c1 [Example 8, N-(cyclopentylmethyl)-4-[(imidazo[1,2-a]pyridin-6-ylcarbamoyl)amino]benzamide]",0.702,114,70.2
"O=C(Nc1ccc(C(=O)NCCCN2CCCCC2)cc1)Nc1ccc2nccn2c1 [Example 9, 4-[(imidazo[1,2-a]pyridin-6-ylcarbamoyl)amino]-N-[3-(piperidin-1-yl)propyl]benzamide]",0.459,1720,649
"COCCC(=O)N(Cc1ccc(C#N)cc1)c1ncc(C(=O)NCc2ccn3ccnc3c2)s1 [Example 57, 2-[(4-cyanobenzyl)(3-methoxypropanoyl)amino]-N-(imidazo[1,2-a]pyridin-7-ylmethyl)-1,3-thiazole-5-carboxamide]",,5.8,5.76
"O=C(NCc1ccn2ccnc2c1)c1ccc(-c2cnn(C3CCOCC3)c2)s1 [Example 410, N-(imidazo[1,2-a]pyridin-7-ylmethyl)-5-[1-(tetrahydro-2H-pyran-4-yl)-1H-pyrazol-4-yl]thiophene-2-carboxamide]",0.169,20.7,
"CCC1CCCCN1C(=O)C(=O)N1CCC(c2ccc(NC(=O)NCc3ccn4ccnc4c3)cc2)CC1 (centres unmarked) [Example 1150, 1-(4-{1-[(2-ethylpiperidin-1-yl)(oxo)acetyl]piperidin-4-yl}phenyl)-3-(imidazo[1,2-a]pyridin-7-ylmethyl)urea]",,,64.1
"Cn1cc2ccc(C(=O)N3CCC(c4ccc(NC(=O)NCc5ccn6ccnc6c5)cc4)CC3)cc2n1 [Example 1151, 1-(imidazo[1,2-a]pyridin-7-ylmethyl)-3-(4-{1-[(2-methyl-2H-indazol-6-yl)carbonyl]piperidin-4-yl}phenyl)urea]",,,7.78
"Cn1ncc2c(C(=O)N3CCC(c4ccc(NC(=O)NCc5ccn6ccnc6c5)cc4)CC3)cccc21 [Example 1152, 1-(imidazo[1,2-a]pyridin-7-ylmethyl)-3-(4-{1-[(1-methyl-1H-indazol-4-yl)carbonyl]piperidin-4-yl}phenyl)urea]",,,3.08

# Next, values leading:
IC50 (NAMPT) [nM],IC50 [1] [nM],IC50 (PC3 cells) [nM],Structure (SMILES)
,,1.72,"O=C(NCc1ccn2ccnc2c1)Nc1ccc(C2CCN(C(=O)c3ccoc3C(F)(F)F)CC2)cc1 [Example 1153, 1-(imidazo[1,2-a]pyridin-7-ylmethyl)-3-[4-(1-{[2-(trifluoromethyl)furan-3-yl]carbonyl}piperidin-4-yl)phenyl]urea]"
,,170,"O=C(NCc1ccn2ccnc2c1)c1ccc(C2=CCN(c3ccncn3)CC2)cc1 [Example 1154, N-(imidazo[1,2-a]pyridin-7-ylmethyl)-4-[1-(pyrimidin-4-yl)-1,2,3,6-tetrahydropyridin-4-yl]benzamide]"
,,35.4,"O=C(NCc1ccn2ccnc2c1)c1ccc(C2=CCN(c3cc(C(F)(F)F)ncn3)CC2)cc1 [Example 1156, N-(imidazo[1,2-a]pyridin-7-ylmethyl)-4-{1-[6-(trifluoromethyl)pyrimidin-4-yl]-1,2,3,6-tetrahydropyridin-4-yl}benzamide]"
,,53.1,"CNCCOC12CC3(C)CC(C)(CC(Cn4ncc(-c5ccc(C(=O)NCc6ccn7ccnc7c6)s5)c4C)(C3)C1)C2 [Example 1157, 5-[1-({3,5-dimethyl-7-[2-(methylamino)ethoxy]tricyclo[3.3.1.1^3,7]dec-1-yl}methyl)-5-methyl-1H-pyrazol-4-yl]-N-(imidazo[1,2-a]pyridin-7-ylmethyl)thiophene-2-carboxamide]"
,,2.04,"CC1(C(=O)N2CCC(c3ccc(C(=O)NCc4cn5ccnc5cn4)c(F)c3)CC2)CC1 [Example 1158, 2-fluoro-N-(imidazo[1,2-a]pyrazin-6-ylmethyl)-4-{1-[(1-methylcyclopropyl)carbonyl]piperidin-4-yl}benzamide]"
,,17.4,"O=C(NCc1cn2ccnc2cn1)c1ccc(C2CCN(C(=O)c3ccccc3)CC2)cc1F [Example 1159, 4-(1-benzoylpiperidin-4-yl)-2-fluoro-N-(imidazo[1,2-a]pyrazin-6-ylmethyl)benzamide]"
,,16.3,"CC(C)C(=O)N1CCC(c2ccc(C(=O)NCc3cn4ccnc4cn3)c(F)c2)CC1 [Example 1160, 2-fluoro-N-(imidazo[1,2-a]pyrazin-6-ylmethyl)-4-[1-(2-methylpropanoyl)piperidin-4-yl]benzamide]"
,,61,"O=C(NCc1cn2ccnc2cn1)c1ccc(C2CCN(C(=O)CC(F)(F)F)CC2)cc1F [Example 1161, 2-fluoro-N-(imidazo[1,2-a]pyrazin-6-ylmethyl)-4-[1-(3,3,3-trifluoropropanoyl)piperidin-4-yl]benzamide]"
,,61.8,"O=C(Cc1ccc2nncn2c1)Nc1ccc(C2CCN(C(=O)c3ccccc3F)CC2)cc1 [Example 1162, N-{4-[1-(2-fluorobenzoyl)piperidin-4-yl]phenyl}-2-([1,2,4]triazolo[4,3-a]pyridin-6-yl)acetamide]"
,,2.7,"CC1(Cn2cc(-c3ccc(C(=O)NCc4ccn5ccnc5c4)s3)cn2)CCN(CCN2CCNCC2)CC1 [Example 1163, N-(imidazo[1,2-a]pyridin-7-ylmethyl)-5-[1-({4-methyl-1-[2-(piperazin-1-yl)ethyl]piperidin-4-yl}methyl)-1H-pyrazol-4-yl]thiophene-2-carboxamide]"
,,158,"CC1(Cn2cc(-c3ccc(C(=O)NCc4ccn5ccnc5c4)s3)cn2)CCN(C(=O)CSC[C@H](N)C(=O)O)CC1 [Example 1164, S-(2-{4-[(4-{5-[(imidazo[1,2-a]pyridin-7-ylmethyl)carbamoyl]thiophen-2-yl}-1H-pyrazol-1-yl)methyl]-4-methylpiperidin-1-yl}-2-oxoethyl)-L-cysteine]"
,,577,"CC1(Cn2cc(-c3ccc(C(=O)NCc4ccn5ccnc5c4)s3)cn2)CCN(C(=O)CCOCCOCCOCCOCCN)CC1 [Example 1165, 5-(1-{[1-(15-amino-4,7,10,13-tetraoxapentadecan-1-oyl)-4-methylpiperidin-4-yl]methyl}-1H-pyrazol-4-yl)-N-(imidazo[1,2-a]pyridin-7-ylmethyl)thiophene-2-carboxamide]"
,,26.1,"CC1(Cn2cc(-c3ccc(C(=O)NCc4ccn5ccnc5c4)s3)cn2)CCN(C(=O)CCNC(=O)CSC[C@H](N)C(=O)O)CC1 [Example 1166, S-{2-[(3-{4-[(4-{5-[(imidazo[1,2-a]pyridin-7-ylmethyl)carbamoyl]thiophen-2-yl}-1H-pyrazol-1-yl)methyl]-4-methylpiperidin-1-yl}-3-oxopropyl)amino]-2-oxoethyl}-L-cysteine]"
